Reference: US20260125417A1, “GLUCOCORTICOID RECEPTOR AGONISTS” (ELI LILLY AND COMPANY, priority 2022, published 2026)

Target: T1, GR-LBD (Homo sapiens, UniProt P04150)
T1 construct: purchased Life Technologies A15899
T1 sequence (P04150 524-758 limits assumed): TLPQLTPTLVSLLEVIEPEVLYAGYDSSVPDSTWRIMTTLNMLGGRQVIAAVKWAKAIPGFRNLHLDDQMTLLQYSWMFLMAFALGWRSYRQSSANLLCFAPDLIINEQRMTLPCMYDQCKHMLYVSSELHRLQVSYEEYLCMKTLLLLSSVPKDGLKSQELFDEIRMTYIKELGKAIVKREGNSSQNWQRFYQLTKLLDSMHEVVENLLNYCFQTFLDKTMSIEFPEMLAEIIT
Assay: hGR CoActivator Recruitment Assay (LanthaScreen TR-Fret GR Coactivator Assay)
Format: biochemical
Conditions: Fluorescein-SRC1-4 recruitment to GR-LBD, 10-point dilution, top concentration 200 nM, positive control 4 μM dexamethasone
Procedure: Example 4. hGR CoActivator Recruitment Assay The activity of glucocorticoid compounds was measured using the LanthaScreen TR-Fret GR Coactivator Assay from Life Technologies (A15899). The compounds were acoustically transferred to an assay plate in a 3-fold 10-point serial dilution with atop concentration of 200 nM. Ten microliters of a 2× solution of GR-LBD was added to the compound plate and incubated for 10 min. Then ten microliters of a 2× solution of Fluoresein-SRC1-4 and Tb labelled anti-GST antibody were added to the plate. The plate was incubated in the dark for two hours and then read on an Envision plate reader, with excitation at 340 nm and emission at 520 nm (Fluorescein) and 490 nm (Terbium). The emission ratio of 520/490 was analyzed in Genedata. To obtain percent activity, the data was compared to a negative control of DMSO and positive control of 4 μM dexamethasone.

| Compound | EC50 [nM] |
| --- | --- |
| CCc1ccc(OCc2cccc(N)c2)c(F)c1[C@H]1O[C@@H]2C[C@H]3[C@@H]4CCC5=CC(=O)C=C[C@]5(C)[C@H]4[C@@H](O)C[C@]3(C)[C@]2(C(=O)CO)O1 [compound 2, (6aR,6bS,7S,8aS,8bS,10S,11aR,12aS,12bS)-10-(3-((3-aminobenzyl)oxy)-6-ethyl-2-fluorophenyl)-7-hydroxy-8b-(2-hydroxyacetyl)-6a,8a-dimethyl-1,2,6a,6b,7,8,8a,8b,11a,12,12a,12b-dodecahydro-4H-naphtho[2′,1′:4,5]indeno[1,2-d][1,3]dioxol-4-one] | 1.52 |
| COc1ccc(CCc2ccc(N)cc2)c(F)c1[C@H]1O[C@@H]2C[C@H]3[C@@H]4CCC5=CC(=O)C=C[C@]5(C)[C@H]4[C@@H](O)C[C@]3(C)[C@]2(C(=O)CO)O1 [compound 3, (6aR,6bS,7S,8aS,8bS,10S,11aR,12aS,12bS)-10-(3-(4-aminophenethyl)-2-fluoro-6-methoxyphenyl)-7-hydroxy-8b-(2-hydroxyacetyl)-6a,8a-dimethyl-1,2,6a,6b,7,8,8a,8b,11a,12,12a,12b-dodecahydro-4H-naphtho[2′,1′:4,5]indeno[1,2-d][1,3]dioxol-4-one] | 1.65 |
| COc1ccc(OCCc2ccc(N)cc2)c(F)c1[C@H]1O[C@@H]2C[C@H]3[C@@H]4CCC5=CC(=O)C=C[C@]5(C)[C@H]4[C@@H](O)C[C@]3(C)[C@]2(C(=O)CO)O1 [compound 4, (6aR,6bS,7S,8aS,8bS,10S,11aR,12aS,12bS)-10-(3-(4-aminophenethoxy)-2-fluoro-6-methoxyphenyl)-7-hydroxy-8b-(2-hydroxyacetyl)-6a,8a-dimethyl-1,2,6a,6b,7,8,8a,8b,11a,12,12a,12b-dodecahydro-4H-naphtho[2′,1′:4,5]indeno[1,2-d][1,3]dioxol-4-one] | 1.48 |
| COc1ccc(OCCc2cccc(N)c2)c(F)c1[C@H]1O[C@@H]2C[C@H]3[C@@H]4CCC5=CC(=O)C=C[C@]5(C)[C@H]4[C@@H](O)C[C@]3(C)[C@]2(C(=O)CO)O1 [compound 5, (6aR,6bS,7S,8aS,8bS,10S,11aR,12aS,12bS)-10-(3-(3-aminophenethoxy)-2-fluoro-6-methoxyphenyl)-7-hydroxy-8b-(2-hydroxyacetyl)-6a,8a-dimethyl-1,2,6a,6b,7,8,8a,8b,11a,12,12a,12b-dodecahydro-4H-naphtho[2′,1′:4,5]indeno[1,2-d][1,3]dioxol-4-one] | 2.25 |
| [2H]C([2H])([2H])Oc1ccc(OCc2cccc(N)c2)c(F)c1[C@H]1O[C@@H]2C[C@H]3[C@@H]4CCC5=CC(=O)C=C[C@]5(C)[C@H]4[C@@H](O)C[C@]3(C)[C@]2(C(=O)CO)O1 [Compound No. 1] | 1.93 |
